Where two headings read alike, the source gives them in different places. Where a SMILES comes first, the peptide text is derived from it.
Columns and labels:
C57BL/6J male SPF mice = test: Preliminary safety evaluation in mice; format: in vivo; conditions: 10 mg/kg and 100 mg/kg, gavage 3 times per week, 4 weeks, n = 6 mice/group
HFD-fed mice [1] = test: HFD-fed obese mice, VAMP for 1 week; format: in vivo; conditions: HFD 8 weeks, then VAMP 50 mg/kg daily for 1 week, vs vehicle, n = 6
HFD-fed mice [2] = format: in vivo; conditions: 8 weeks
ob/ob mice = test: ob/ob mice, VAMP for 4 weeks; format: in vivo; conditions: VAMP 50 mg/kg daily oral gavage, n = 6
A. muciniphila = format: in vivo; conditions: HFD-fed mice, VAMP 50 mg/kg oral gavage, 8 weeks; colonic contents, 16S rRNA
HFD-induced obese mice = test: HFD-induced obese mice, VAMP and/or benzydamine for 4 weeks; format: in vivo; conditions: HFD 8 weeks, then VAMP 50 mg/kg three times per week for 4 weeks, n = 6
[3] = tested on: other strains of Bacteroides; test: Single-strain growth in culture; format: cell-based; conditions: VAMP 50 μM vs PBS, anaerobic, 48 h, OD600 ratio
HFD-fed mice [4] = test: HFD-fed mice, TPH or sitagliptin for 8 weeks; format: in vivo; conditions: sitagliptin 12.5 mg/kg daily oral gavage
[5] = HFD plus VAMP 50 mg/kg daily oral gavage, vs HFD-fed control
[6] = HFD plus VAMP 50 mg/kg daily oral gavage, vs vehicle, n = 6

Compound: CSCC[C@H](NC(=O)[C@H](C)NC(=O)[C@@H](N)C(C)C)C(=O)N1CCC[C@H]1C(=O)O [VAMP] (H-VAMP-OH; N-terminus and C-terminus assumed)
- side effects in mice (body weight, food intake, ALT, AST, UREA, CRE) (C57BL/6J male SPF mice): did not induce any obvious side effects
- energy intake (HFD-fed mice [1]): no significant differences
- plasma active GLP-1 level (HFD-fed mice [1]): increased
- plasma total GLP-1 level (HFD-fed mice [1]): without altering
- thickness of colonic mucus layer (HFD-fed mice [2]; Alcian blue-stained sections, HFD plus VAMP 50 mg/kg): increased thickness of mucus layer
- plasma IL-1β level (HFD-fed mice [2]; [5]): significantly reduced
- plasma TNF-α level (HFD-fed mice [2]; [5]): significantly reduced
- plasma endotoxin (LPS) level (HFD-fed mice [2]; [5]): significantly reduced
- fat weight/body weight ratio (HFD-fed mice [2]; HFD plus VAMP 50 mg/kg daily oral gavage, vs vehicle): significantly decreased
- size of adipocytes in white adipose tissue (HFD-fed mice [2]; HFD plus VAMP 50 mg/kg daily oral gavage, vs vehicle, 3 mice per group): significantly decreased
- FBG (HFD-fed mice [2]; [6]): significantly decreased
- body weight (HFD-fed mice [2]; [6]): significantly decreased
- fasting insulin level (HFD-fed mice [2]; [6]): decreased fasting insulin levels
- glucose tolerance (OGTT) (HFD-fed mice [2]; [6]): improved glucose tolerance
- intestinal active GLP-1 level (HFD-fed mice [2]; [6]): significantly increased
- intestinal total GLP-1 level (HFD-fed mice [2]; [6]): without affecting
- plasma active GLP-1 level (HFD-fed mice [2]; [6]): significantly increased
- plasma total GLP-1 level (HFD-fed mice [2]; [6]): without affecting
- expression of intestinal Tjp1, Ocln, Cldn3, and Muc2 (HFD-fed mice [2]; colonic tissue mRNA, RT-qPCR, HFD plus VAMP 50 mg/kg): upregulate
- FBG (ob/ob mice): steadily decreased
- body weight (ob/ob mice): no significant difference
- energy intake (ob/ob mice): no significant difference
- intestinal DPP-IV activity (ob/ob mice): suppressed intestinal DPP-IV activity
- intestinal active GLP-1 level (ob/ob mice): increased the levels
- plasma active GLP-1 level (ob/ob mice): increased the levels
- abundance of Akkermansia (genus level) (A. muciniphila): significantly increased
- body weight (HFD-induced obese mice): significantly decreased
- growth of other strains of Bacteroides [3]: failed to stimulate the growth

Compound: N[C@@H](CC(=O)N1CCn2c(nnc2C(F)(F)F)C1)Cc1cc(F)c(F)cc1F [sitagliptin, Sitagliptin]
- glucose metabolism in obese mice (HFD-fed mice [4]): effectively improved glucose metabolism

Reference: paper doi:10.1101/2024.07.22.604525v1 (bioRxiv, 2024)
